Where “and” joins values, the source holds several entries; their conditions need not be identical. Equal entries are not always repeated.
Tests used:
[1] = Clinical chemistry, hematology, weight and clinical observation of treated monkeys; type: in vivo, rhesus macaques (Macaca mulatta); settings: rhesus monkey, in vivo
Description: Monkeys were treated according to the schedule shown in Table 1 (stratification of treatment groups is given in the supplemental material). During treatment, monkeys were weighed daily and received the compound via gavage, followed by gastric feeding (weight change during treatment is shown in Table S6 in the supplemental material). Monkeys in the prophylaxis groups (groups 691-proph and 599-proph) were treated ∼20 min after the i.v. sporozoite injection. The other monkeys were treated when all the monkeys in the experiment (except those in the prophylaxis group) were blood-stage patent (at day 11 p.i.). To kill the blood-stage parasites, all monkeys received a 5-day treatment of 7.5 mg/kg of body weight of chloroquine (CQ) (intramuscular [i.m.] injection), during compound dosing. KDU691 was formulated in 0.5% methylcellulose and 0.5% Tween 80 in water. LMV599 was formulated as a solid dispersion in a solution containing 5.6% (wt/wt) Tween 80–44.4% hydroxypropyl methylcellulose (HPMC) E3–38.9% Soluplus–11.1% vitamin E D-alphatocopheryl polyethylene glycol 1000 succinate (TPGS).
Blood samples were collected for clinical evaluation and pharmacokinetic (PK) analysis (see Table S2 in the supplemental material).
When the first relapse was observed, monkeys of the KDU691 experiment were radically cured with primaquine (PQ)/CQ (oral administration of 1.8 mg/kg PQ for 14 days together with i.m. administration of 7.5 mg/kg CQ for the first five days of PQ treatment) to cure both blood stage and liver stage parasites, […]
The monkeys of the LMV599/PQ experiment were cured with a five day CQ treatment (7.5 mg/kg, i.m. administration) at the first relapse and were monitored until the second relapse after which they were cured with CQ (7.5 mg/kg, intramuscular (i.m.) for five days) plus PQ (1.8 mg/kg for 14 days).
Table S2: PK and clinical blood sampling schedule in monkeys.
Groups are named 691 for KDU691 and 599 for LMV599 treatment groups, followed by -C for control group (no compound), -proph for prophylactic treatment (treated immediately after infection), and -RC for radical cure treatment (treated when blood stage positive). […]
the face and chest areas were very yellow. Therefore the 691-RC group (treated from d11 to d15 pi) was monitored by daily clinical chemistry analysis during dosing to be compared with untreated 691-C. […]
sampling of the single dose prophylaxis group at day 0, 1, 7 and 100. The lack of aberrant clinical […]
as radical cure compound, during which also clinical sampling was performed daily. a: only clinical chemistry samples were taken. *: t = 24 sample was taken only on the 1st day of dosing.
Group name Clin. chem PK sampling PK time points
Hematology (h post dosing)
691-proph 1st and 5th day of dosing t = 0, 1, 4, 6 and 24*
691-RC Dailya 1st and 5th day of dosing t = 0, 1, 4, 6 and 24* […]
599-RC Daily 1st and 4th day of dosing t = 0, 1, 2, 4 and 24
Clinical chemistry and hematology
For the clinical analysis serum from 1 mL of clotted blood was analysed using the Cobas Integra 400 plus fully automated chemistry analyser. The following clinical parameters were determined: Alkaline phosphatase; Alanine Aminotransferase; Albumin: Aspartate aminotransfeasr; Bilirubin; Calcium; Cholesterol; Creatine kinase; Creatinine; C-reactive protein: Iron; Phosphate; Gamma-glutamyl transpeptidase; Glucose; Hemoglobin; Potassium; Lactate dehydrogenase; Sodium; Total protein; Urea Haematological parameters were determined from 1 mL EDTA-blood with a Sysmex XT-2000iV automated system. The following hematological parameters were determined: Basophilic granulocytes; Eosinophilic granulocytes; Erythrocytes; Hematocrit; Leucocytes; Leucocyte differentiation; Lymphocytes; Mean corpusculair hemoglobin; Mean corpusculair hemoglobin concentration; Mean corpusculair volume; Neutrophilic granulocytes; Red cell distribution width; Thrombocytes […]
Liver tissue samples were excised, dipped in PBS, gently blotted with absorbent paper, dried, weighed and stored at -20 °C until further analysis. […]

[2] = system: P. cynomolgi developing EEFs (liver schizonts) in primary rhesus hepatocytes; experiment: In vitro liver-stage drug assay with P. cynomolgi, large forms (developing EEFs / liver schizonts); type: cell-based, Plasmodium cynomolgi; settings: compound exposure 6 days, mean of several (9) independent assays, read-out: IC50 against developing EEFs / liver schizonts (large forms)
Description: In vitro infections of primary rhesus hepatocytes with P. cynomolgi sporozoites were performed according to methods described previously by Zeeman et al. ([10]). At day 6 postinfection (p.i.), the assay mixtures were fixed and stained with anti-P. cynomolgi Hsp70 rabbit antiserum and a fluorescein isothiocyanate (FITC)-labeled secondary antibody (goat anti-rabbit). Plates were analyzed with the Operetta high-content imaging system, differentially counting hypnozoites and developing extraerythrocytic forms (EEFs), based on parasite size ([10]).
In vitro activity against P. cynomolgi liver stages was determined for both compounds. The numbers of small (hypnozoites) and large (developing EEFs) parasites were determined by using Operetta and image analysis of primary rhesus hepatocyte cultures infected with P. cynomolgi sporozoites and exposed to the compound for 6 days ([10]). […] IC50s were determined by using the least-squares nonlinear regression method (Prism) for small and large parasites. Data from several independent experiments were used to calculate the IC50s for the two compounds.

CNC(=O)c1ccc(-c2cnc3cnc(C(=O)N(C)c4ccc(Cl)cc4)cn23)cc1 [KDU691]
weight loss, % of the initial weight [1]: 3.5%
IC50 [2]: 61 nM and 60 nM

From article PMC4862498, “PI4 Kinase Is a Prophylactic but Not Radical Curative Target in Plasmodium vivax-Type Malaria Parasites” (Antimicrobial Agents and Chemotherapy, 2016)
